# Source: patent publication US12484574B2, “Agent for promoting undifferentiation and cryoprotective agent using aprotic zwitterion” (JAPAN SCIENCE AND TECHNOLOGY AGENCY, priority 2019, dated 2025)
# Entries after “also recorded” stand apart in the source; their conditions may differ.
# System: Human skin fibroblasts
# Assay: Cell freezing, slow freezing method, viable cell count after thawing (Examples 2, 3)
# Format: cell-based
# Details: 5% by weight in H2O; frozen to −80° C. at −1° C./min; FIG. 3, FIG. 6
# Description: CultureSure® cryopreservation solution (manufactured by FUJIFILM Wako Pure Chemical Corp.) (hereinafter, referred to as “FM”) • H2O • 5% by weight of DMSO/H2O • 5% by weight of OE2imC3C/H2O
# The cells to be frozen (two types) were centrifugally recovered by trypsin treatment and diluted with Dulbecco's modified Eagle medium (DMEM), and each cell concentration was measured. The types and cell concentrations of the cells are as follows. • Human skin fibroblasts 5.0×10^5 cells/100 μl • Mouse fibroblasts C57BL/6-GFP 5.0×10^5 cells/100 μl
# Subsequently, the cells of each type were dispensed at 1 ml/tube to 1.5 ml tubes, centrifuged, suspended in 100 μl each of the cryopreservation solutions described above, and frozen at a cooling temperature of −80° C. at a cooling rate of −1° C./min using a cell freezing container Mr. Frosty®.
# 1 ml of a medium was added to the cryopreservation vial for thawing, and a supernatant was removed by centrifugation. Subsequently, the cells obtained by centrifugation were resuspended in a medium, followed by the measurement of a viable cell count. Then, culture was started in a 6-well plate. […]
# The cells to be frozen were centrifugally recovered by trypsin treatment and diluted with Dulbecco's modified Eagle medium (DMEM), and the cell concentration was measured. […]
smiles,measurement,value
COCCOCCn1cc[n+](CCCC(=O)[O-])c1 [OE2imC3C],viable cell count after thawing,larger viable cell count than that in the case of using conventional DMSO; also recorded: superior to the commercially available cryopreservation solution (FM)
